According to US20110086837A1, “COMBINATIONS OF A PI3K INHIBITOR AND A MEK INHIBITOR” (Genentech, Inc., priority 2009, published 2011):

Tests used:
MOLM-16 (AML) tumors = assay: MOLM-16 xenograft model, tumor growth inhibition; type: in vivo, nude mice (nu/nu)
Experimental: (A) Treatment was then begun dosing Vehicle (open circles)), GDC-0941 (100 mg/kg, QD, PO; filled triangles), GDC-973 (10 mg/kg, QD, PO; filled squares), or the combination of GDC-0941 and GDC-0973 (filled diamonds, solid lines, n=7). […] Treatment was then begun dosing Vehicle (open circles,), GDC-0941 (100 mg/kg, QD, PO; filled triangles), GDC-0973 (5 mg/kg, QD, PO; filled squares), or the combination of GDC-0941 and GDC-0973 (filled diamonds). Caliper measurements of animals' tumors and animal weights were taken every 3-4 days throughout the study and tumor volumes were calculated (TV=[L×(W^2)]/2) and plotted +/−SEM. Percent tumor growth inhibition was calculated by calculating the area under the curve (AUC) of each treatment group relative to vehicle control. Student's t-tests were performed on day 21 data to determine significance by p-value.
MOLM-16 (AML) tumor-bearing animals were treated with either single agent GDC-0973 (10 mg/kg, daily) or GDC-0941 (100 mg/kg, daily) or the combination of the two.

FaDu (HNSCC) tumors = assay: FaDu xenograft model, tumor growth inhibition; type: in vivo
Experimental: (A) Treatment was then begun dosing Vehicle (open circles)), GDC-0941 (100 mg/kg, QD, PO; filled triangles), GDC-973 (5 mg/kg, QD, PO; filled squares), or the combination of GDC-0941 and GDC-0973 (filled diamonds, solid lines, n=7). (B) the SKOV-4 (ovarian) Xenograph model. Treatment was then begun dosing Vehicle (open circles,), GDC-0941 (100 mg/kg, QD, PO; filled triangles), GDC-0973 (10 mg/kg, QD, PO; filled squares), or the combination of GDC-0941 and GDC-0973 (filled diamonds). Caliper measurements of animals' tumors and animal weights were taken every 3-4 days throughout the study and tumor volumes were calculated (TV=[L×(W^2)]/2) and plotted +/−SEM. Percent tumor growth inhibition was calculated by calculating the area under the curve (AUC) of each treatment group relative to vehicle control. Student's t-tests were performed on day 21 data to determine significance by p-value.
FaDu (HNSCC) tumor-bearing animals were treated with either single agent GDC-0973 (5 mg/kg, daily) or GDC-0941 (100 mg/kg, daily) or the combination of the two.

[1] = system: NCI-H2122 (NSCLC, KRAS G12C, PI3K/PTEN WT) tumors; assay: NCI-H2122 xenograft model, tumor growth inhibition; settings: for sensitivity as single agent: NCI-H2122 xenograft, tumor growth delay, but not stasis or regression
Experimental: NCI-H2122 cells (10×10^6 in Hanks Balance Salt Solution (HBSS)+Matrigel) were inoculated into nude mice (nu/nu) and tumors were allowed to establish to an average volume of ˜240 mm^3. […] Caliper measurements of animals' tumors and animal weights were taken every 3-4 days throughout the study and tumor volumes were calculated (TV=[L×(W^2)]/2) and plotted +/−SEM. Percent tumor growth inhibition was calculated by calculating the area under the curve (AUC) of each treatment group relative to vehicle control. Student's t-tests were performed on day 21 data to determine significance by p-value.
GDC-0973 and GDC-0941 were used as therapeutic agents in the NCI-H2122 (NSCLC, KRAS^G12C, PI3K/PTEN WT) and A2058 (Melanoma, BRAF^V600E, PTEN^null) xenograft models. […]

[2] = system: A2058 (Melanoma, BRAF V600E, PTEN null) tumors; assay: A2058 xenograft model, tumor growth inhibition; type: in vivo, nude mice (nu/nu); settings: for sensitivity as single agent: A2058 xenograft, tumor growth delay, but not stasis or regression
Experimental: A2058 tumor-bearing animals were tested with both moderate and high doses of GDC-0973 (6 and 10 mg/kg, daily) and GDC-0941 (30 and 100 mg/kg, daily) as well as combinations of the lower and higher doses. […] Likewise, A2058 tumors are also moderately sensitive to single agent GDC-0941 with TGIs of 18% at 30 mg/kg and 56% at 100 mg/kg (FIGS. 3A and B, respectively).

SKOV-3 (Ovarian) tumors = assay: SKOV-3 xenograft model, tumor growth inhibition; type: in vivo; settings: GDC-0941 single agent, 100 mg/kg daily
Experimental: (B) the […] (ovarian) Xenograph model.
SKOV-3 (Ovarian) tumor-bearing animals were treated with either single agent GDC-0973 (10 mg/kg, daily) or GDC-0941 (100 mg/kg, daily) or the combination of the two. […] The improved efficacy of the combination was statistically significant versus single agent GDC-0973 and GDC-0941 (p=0.0017 and p=0.0283, respectively, on Day 22).

[3] = GDC-0973 single agent, 10 mg/kg daily
[4] = GDC-0941 single agent, 100 mg/kg daily

SMILES | percent tumor growth inhibition (% TGI) (MOLM-16 (AML) tumors; [3]) [%] | percent tumor growth inhibition (% TGI) (FaDu (HNSCC) tumors; GDC-0973 single agent, 5 mg/kg daily) [%] | tumor growth inhibition (TGI, relative to vehicle control) ([1]; GDC-0973 single agent, 5 mg/kg QD arm) [%] | sensitivity as single agent [1] | sensitivity as single agent [2] | TGI ([2]; GDC-0973 single agent, 6 mg/kg daily) [%] | TGI [2, 3] [%] | % TGI (SKOV-3 (Ovarian) tumors) [%] | percent tumor growth inhibition (% TGI) (MOLM-16 (AML) tumors; [4]) [%] | percent tumor growth inhibition (% TGI) (FaDu (HNSCC) tumors; [4]) [%] | tumor growth inhibition (TGI, relative to vehicle control) ([1]; GDC-0941 single agent, 30 mg/kg arm (so in the source)) [%] | TGI ([2]; GDC-0941 single agent, 30 mg/kg daily) [%] | TGI [2, 4] [%]
O=C(c1ccc(F)c(F)c1Nc1ccc(I)cc1F)N1CC(O)([C@@H]2CCCCN2)C1 [GDC-0973, [3,4-Difluoro-2-(2-fluoro-4-iodo-phenylamino)-phenyl]-((S)-3-hydroxy-3-piperidin-2-yl-azetidin-1-yl)-methanone] | 57 | 41 | 57 | moderate sensitivity | moderate sensitivity | 41 | 62 |  |  |  |  |  | 
CS(=O)(=O)N1CCN(Cc2cc3nc(-c4cccc5[nH]ncc45)nc(N4CCOCC4)c3s2)CC1 [GDC-0941, 4-(2-(1H-indazol-4-yl)-6-((4-(methylsulfonyl)piperazin-1-yl)methyl)thieno[3,2-d]pyrimidin-4-yl)morpholine] |  |  |  | moderate sensitivity | moderate sensitivity |  |  | 51 | 40 | 33 | 73 | 18 | 56
